Test system: MV-4-11 cells
Test: Gene expression microarray analysis (Affymetrix PrimeView) and GSEA
Format: cell-based, human
Set-up: RFU PODN (11730768_x_at) / Fold change /veh PODN (11730768_x_at) / RFU LINC00158 (11744669_a_at) / Fold change /veh LINC00158 (11744669_a_at) / RFU DUSP10 (11751237_a_at) / Fold change /veh DUSP10 (11751237_a_at) / RFU ID3 (11757404_x_at) / Fold change /veh ID3 (11757404_x_at) / RFU PLEKHG5 (11737974_s_at) / Fold change /veh PLEKHG5 (11737974_s_at) / RFU LRRC4B (11730491_at) / Fold change /veh LRRC4B (11730491_at) / RFU GIMAP4 (11747438_a_at) / Fold change /veh GIMAP4 (11747438_a_at) / RFU KRT8 (11758183_x_at) / Fold change /veh KRT8 (11758183_x_at) / RFU CNN1 (11734310_a_at) / Fold change /veh CNN1 (11734310_a_at) / RFU VPS37D (11726825_at) / Fold change /veh VPS37D (11726825_at) / RFU C10orf10 (11716522_x_at) / Fold change /veh C10orf10 (11716522_x_at) / RFU KIR2DL2 /// KIR2DL4 /// KIR2DL5A /// KIR2DL5B /// KIR2DS1 /// KIR2DS2 /// KIR2DS3 /// KIR2DS4 /// KIR3DL3 /// KIR3DL3 /// KIR3DS1 (11738374_at) / Fold change /veh KIR2DL2 /// KIR2DL4 /// KIR2DL5A /// KIR2DL5B /// KIR2DS1 /// KIR2DS2 /// KIR2DS3 /// KIR2DS4 /// KIR3DL3 /// KIR3DL3 /// KIR3DS1 (11738374_at) / RFU C1QL1 (11718748_at) / Fold change /veh C1QL1 (11718748_at) / RFU TMPRSS4 (11747572_a_at) / Fold change /veh TMPRSS4 (11747572_a_at) / RFU HAMP (11756126_x_at) / Fold change /veh HAMP (11756126_x_at) / RFU RNFT2 (11725882_a_at) / Fold change /veh RNFT2 (11725882_a_at) / RFU NR4A2 (11747474_a_at) / Fold change /veh NR4A2 (11747474_a_at) / RFU ABCC12 (11746883_a_at) / Fold change /veh ABCC12 (11746883_a_at) / RFU TMEM136 (11760407_x_at) / Fold change /veh TMEM136 (11760407_x_at) / RFU CLDN22 /// WWC2 (11732394_at) / Fold change /veh CLDN22 /// WWC2 (11732394_at) / RFU HLA-DPB1 (11760878_x_at) / Fold change /veh HLA-DPB1 (11760878_x_at) / RFU SPINT1 (11716480_a_at) / Fold change /veh SPINT1 (11716480_a_at) / RFU GAP43 (11754022_s_at) / Fold change /veh GAP43 (11754022_s_at) / RFU A4GNT (11735810_at) / Fold change /veh A4GNT (11735810_at) / RFU PRB3 (11715151_x_at) / Fold change /veh PRB3 (11715151_x_at) / RFU TUBB4B (11761932_at) / Fold change /veh TUBB4B (11761932_at) / RFU CAPN14 (11732068_a_at) / Fold change /veh CAPN14 (11732068_a_at) / RFU TMCC2 (11721928_a_at) / Fold change /veh TMCC2 (11721928_a_at) / RFU IRGQ (11745062_a_at) / Fold change /veh IRGQ (11745062_a_at) / RFU FAM174B (11720279_a_at) / Fold change /veh FAM174B (11720279_a_at) / RFU TMPRSS4 (11748680_a_at) / Fold change /veh TMPRSS4 (11748680_a_at) / RFU FAM212B (11763350_a_at) / Fold change /veh FAM212B (11763350_a_at) / RFU PLEKHG5 (11743358_a_at) / Fold change /veh PLEKHG5 (11743358_a_at) / RFU ZSCAN30 (11745921_a_at) / Fold change /veh ZSCAN30 (11745921_a_at) / RFU CMKLR1 (11741424_a_at) / Fold change /veh CMKLR1 (11741424_a_at) / RFU LOC101060620 /// MAPK8IP1 (11723275_at) / Fold change /veh LOC101060620 /// MAPK8IP1 (11723275_at) / RFU SPTSSB (11747773_x_at) / Fold change /veh SPTSSB (11747773_x_at) / RFU PRSS12 (11739890_at) / Fold change /veh PRSS12 (11739890_at) / RFU BIN1 (11741810_x_at) / Fold change /veh BIN1 (11741810_x_at) / RFU WNT11 (11732464_a_at) / Fold change /veh WNT11 (11732464_a_at) / RFU C10orf10 (11716521_a_at) / Fold change /veh C10orf10 (11716521_a_at) / RFU C5orf56 (11738089_at) / Fold change /veh C5orf56 (11738089_at) / RFU CYB561 (11721691_x_at) / Fold change /veh CYB561 (11721691_x_at) / RFU ANKRD19P (11752326_a_at) / Fold change /veh ANKRD19P (11752326_a_at) / RFU OR2T12 /// OR2T33 /// OR2T8 (11738714_s_at) / Fold change /veh OR2T12 /// OR2T33 /// OR2T8 (11738714_s_at) / RFU VCAN (11748164_a_at) / Fold change /veh VCAN (11748164_a_at) / RFU JSRP1 (11732532_at) / Fold change /veh JSRP1 (11732532_at) / RFU KRTAP10-11 (11738290_x_at) / Fold change /veh KRTAP10-11 (11738290_x_at) / RFU MYO3A (11730013_a_at) / Fold change /veh MYO3A (11730013_a_at) / RFU EBF3 (11725865_a_at) / Fold change /veh EBF3 (11725865_a_at) / RFU CAMK2N1 (11719241_x_at) / Fold change /veh CAMK2N1 (11719241_x_at) / RFU C5orf56 (11738088_a_at) / Fold change /veh C5orf56 (11738088_a_at) / RFU OLFML3 (11715873_a_at) / Fold change /veh OLFML3 (11715873_a_at) / RFU LOC100653217 /// NTM (11731650_a_at) / Fold change /veh LOC100653217 /// NTM (11731650_a_at) / RFU MAPK11 (11762145_a_at) / Fold change /veh MAPK11 (11762145_a_at) / RFU FIZ1 (11724087_x_at) / Fold change /veh FIZ1 (11724087_x_at) / RFU OASL (11726364_x_at) / Fold change /veh OASL (11726364_x_at) / RFU SOX15 (11748057_x_at) / Fold change /veh SOX15 (11748057_x_at) / RFU CD79A (11719716_a_at) / Fold change /veh CD79A (11719716_a_at) / RFU HIST1H1D (11736915_at) / Fold change /veh HIST1H1D (11736915_at) / RFU CASKIN2 (11723855_a_at) / Fold change /veh CASKIN2 (11723855_a_at) / RFU LOC730098 (11760151_x_at) / Fold change /veh LOC730098 (11760151_x_at) / RFU OR4N2 (11742367_at) / Fold change /veh OR4N2 (11742367_at) / RFU PRRT2 (11749266_a_at) / Fold change /veh PRRT2 (11749266_a_at) / RFU SNX32 (11753110_a_at) / Fold change /veh SNX32 (11753110_a_at) / RFU CDHR5 (11726645_a_at) / Fold change /veh CDHR5 (11726645_a_at) / RFU RCAN1 (11760418_a_at) / Fold change /veh RCAN1 (11760418_a_at) / RFU FAM167A (11723789_a_at) / Fold change /veh FAM167A (11723789_a_at) / RFU FAM26E (11764081_at) / Fold change /veh FAM26E (11764081_at) / RFU ISYNA1 (11749810_s_at) / Fold change /veh ISYNA1 (11749810_s_at) / RFU ACY1 (11761880_at) / Fold change /veh ACY1 (11761880_at) / RFU 11764098_at / Fold change /veh 11764098_at / RFU SAMD14 (11745864_x_at) / Fold change /veh SAMD14 (11745864_x_at) / RFU NPB (11741838_a_at) / Fold change /veh NPB (11741838_a_at) / RFU TMPRSS6 (11731388_a_at) / Fold change /veh TMPRSS6 (11731388_a_at) / RFU KRTAP10-2 (11738614_at) / Fold change /veh KRTAP10-2 (11738614_at) / RFU ARHGAP8 /// PRR5-ARHGAP8 (11727945_x_at) / Fold change /veh ARHGAP8 /// PRR5-ARHGAP8 (11727945_x_at) / RFU KRTAP5-7 /// NADSYN1 (11734609_at) / Fold change /veh KRTAP5-7 /// NADSYN1 (11734609_at) / RFU RASL12 (11751679_a_at) / Fold change /veh RASL12 (11751679_a_at) / RFU CDKN2B (11736163_a_at) / Fold change /veh CDKN2B (11736163_a_at) / RFU PRF1 (11729649_at) / Fold change /veh PRF1 (11729649_at) / RFU, ZNF638 /// ZNF638-IT1 / Fold change vs veh, ZNF638 /// ZNF638-IT1 / RFU, PANK3 / Fold change vs veh, PANK3 / RFU, SH3YL1 / Fold change vs veh, SH3YL1 / RFU, ZEB2 / Fold change vs veh, ZEB2 / RFU, NRIP1 / Fold change vs veh, NRIP1 / RFU, PTTG1IP / Fold change vs veh, PTTG1IP / RFU, CAPN2 / Fold change vs veh, CAPN2 / RFU, MED14 / Fold change vs veh, MED14 / RFU, SNORA58 / Fold change vs veh, SNORA58 / RFU, C1orf63 / Fold change vs veh, C1orf63 / RFU, LRRFIP1 / Fold change vs veh, LRRFIP1 / RFU, NDUFAF7 / Fold change vs veh, NDUFAF7 / RFU, SLC12A2 / Fold change vs veh, SLC12A2 / RFU, IBTK / Fold change vs veh, IBTK / RFU, ESF1 / Fold change vs veh, ESF1 / Fold change vs veh, TMEM50B / RFU, TAOK1 / Fold change vs veh, TAOK1 / RFU, ACBD3 / Fold change vs veh, ACBD3 / RFU, TMA16 / Fold change vs veh, TMA16 / RFU, RWDD3 / Fold change vs veh, RWDD3 / RFU, BCAT1 / Fold change vs veh, BCAT1 / RFU, EDEM3 / Fold change vs veh, EDEM3 / RFU, TMEM33 / Fold change vs veh, TMEM33 / RFU, WDR75 / Fold change vs veh, WDR75 / RFU, AHCTF1 / Fold change vs veh, AHCTF1 / RFU, TFRC / Fold change vs veh, TFRC / RFU, ZDHHC17 / Fold change vs veh, ZDHHC17 / RFU, NOM1 / Fold change vs veh, NOM1 / RFU, ARL8B / Fold change vs veh, ARL8B / RFU, ZBTB11 / Fold change vs veh, ZBTB11 / RFU, TAMM41 / Fold change vs veh, TAMM41 / RFU, KIAA1704 /// LOC100996395 / Fold change vs veh, KIAA1704 /// LOC100996395 / RFU, ING1 / Fold change vs veh, ING1 / RFU, TRMT61B / Fold change vs veh, TRMT61B / RFU, FUBP3 / Fold change vs veh, FUBP3 / RFU, TP53 / Fold change vs veh, TP53 / RFU, TNKS2 / Fold change vs veh, TNKS2 / RFU, ZFP14 / Fold change vs veh, ZFP14 / RFU, ACTR2 / Fold change vs veh, ACTR2 / RFU, PPP3R1 / Fold change vs veh, PPP3R1 / RFU, PIK3R1 / Fold change vs veh, PIK3R1 / RFU, HNRNPA1 / Fold change vs veh, HNRNPA1 / RFU, RNF170 / Fold change vs veh, RNF170 / RFU, ZNF28 / Fold change vs veh, ZNF28 / RFU, RNGTT / Fold change vs veh, RNGTT / RFU, OGT / Fold change vs veh, OGT / RFU, BRD1 / Fold change vs veh, BRD1 / RFU, MARS / Fold change vs veh, MARS / RFU, ZNF655 / Fold change vs veh, ZNF655 / RFU, FAHD1 / Fold change vs veh, FAHD1 / RFU, BDP1 / Fold change vs veh, BDP1 / RFU, LRRCC1 / Fold change vs veh, LRRCC1 / RFU, ARID1A / Fold change vs veh, ARID1A / RFU, ZNF146 / Fold change vs veh, ZNF146 / RFU, ZNF330 / Fold change vs veh, ZNF330 / RFU, GPN3 / Fold change vs veh, GPN3 / RFU, C9orf123 / Fold change vs veh, C9orf123 / RFU, N4BP2L2 / Fold change vs veh, N4BP2L2 / RFU, ARFIP1 / Fold change vs veh, ARFIP1 / RFU, FAM179B / Fold change vs veh, FAM179B / RFU, BCL10 / Fold change vs veh, BCL10 / RFU, UHRF1BP1L / Fold change vs veh, UHRF1BP1L / RFU, BET1 / Fold change vs veh, BET1 / RFU, CNOT2 / Fold change vs veh, CNOT2 / RFU, ZNF268 / Fold change vs veh, ZNF268 / Fold change vs veh, ZNF507 / RFU, DGCR2 / Fold change vs veh, DGCR2 / RFU, WDSUB1 / Fold change vs veh, WDSUB1 / Fold change vs veh, HSP90B1 /// MIR3652 / RFU, ADSS / Fold change vs veh, ADSS / RFU, GK / Fold change vs veh, GK / RFU, ZNF148 / Fold change vs veh, ZNF148 / RFU, TAF9 / Fold change vs veh, TAF9 / RFU, SLC1A5 / Fold change vs veh, SLC1A5 / RFU, SLMO2 / Fold change vs veh, SLMO2 / RFU, ABCC4 / Fold change vs veh, ABCC4 / RFU, LOC101060439 /// RAP1B / Fold change vs veh, LOC101060439 /// RAP1B / RFU, RFX7 / Fold change vs veh, RFX7 / RFU, GTPBP10 / Fold change vs veh, GTPBP10 / RFU, CNEP1R1 / Fold change vs veh, CNEP1R1 / RFU, BIVM-ERCC5 /// ERCC5 / Fold change vs veh, BIVM-ERCC5 /// ERCC5 / RFU, ILF3 / Fold change vs veh, ILF3 / RFU 11762660_at / Fold change /veh 11762660_at / RFU VCAN (11757783_s_at) / Fold change /veh VCAN (11757783_s_at) / RFU DDX43 (11728927_at) / Fold change /veh DDX43 (11728927_at) / RFU KRT8 (11758188_x_at) / Fold change /veh KRT8 (11758188_x_at) / RFU NKD1 (11759106_at) / Fold change /veh NKD1 (11759106_at) / RFU SRD5A1 (11742802_a_at) / Fold change /veh SRD5A1 (11742802_a_at) / RFU TPSAB1 /// TPSB2 (11721975_s_at) / Fold change /veh TPSAB1 /// TPSB2 (11721975_s_at) / RFU GSTM3 (11746129_a_at) / Fold change /veh GSTM3 (11746129_a_at) / RFU IL23R (11737362_x_at) / Fold change /veh IL23R (11737362_x_at) / RFU TMEM51 (11727254_a_at) / Fold change /veh TMEM51 (11727254_a_at) / RFU PIWIL2 (11732686_x_at) / Fold change /veh PIWIL2 (11732686_x_at) / RFU ORM1 (11744905_x_at) / Fold change /veh ORM1 (11744905_x_at) / RFU CCDC152 (11743942_at) / Fold change /veh CCDC152 (11743942_at) / RFU ECM1 (11717891_a_at) / Fold change /veh ECM1 (11717891_a_at) / RFU IL23R (11748794_a_at) / Fold change /veh IL23R (11748794_a_at) / RFU TNFAIP8L3 (11732012_x_at) / Fold change /veh TNFAIP8L3 (11732012_x_at) / RFU MBOAT4 (11741988_at) / Fold change /veh MBOAT4 (11741988_at) / RFU 11764193_at / Fold change /veh 11764193_at / RFU TMEM53 (11763286_at) / Fold change /veh TMEM53 (11763286_at) / RFU MAGEB2 (11727129_at) / Fold change /veh MAGEB2 (11727129_at) / RFU TMEM200A (11744735_a_at) / Fold change /veh TMEM200A (11744735_a_at) / RFU CCDC152 (11751479_a_at) / Fold change /veh CCDC152 (11751479_a_at) / RFU FAM211A (11726209_a_at) / Fold change /veh FAM211A (11726209_a_at) / RFU RGS16 (11746705_a_at) / Fold change /veh RGS16 (11746705_a_at) / RFU VCAN (11755009_s_at) / Fold change /veh VCAN (11755009_s_at) / RFU RHOB (11743442_s_at) / Fold change /veh RHOB (11743442_s_at) / RFU RGS16 (11720943_a_at) / Fold change /veh RGS16 (11720943_a_at) / RFU RGS16 (11720944_at) / Fold change /veh RGS16 (11720944_at) / RFU, VPS4B / Fold change vs veh, VPS4B / RFU, CREB1 / Fold change vs veh, CREB1 / RFU, DNAJC13 / Fold change vs veh, DNAJC13 / RFU, GNAQ / Fold change vs veh, GNAQ / RFU, CDK5R1 / Fold change vs veh, CDK5R1 / RFU, ZRANB3 / Fold change vs veh, ZRANB3 / RFU, CUL4A / Fold change vs veh, CUL4A / RFU, CCNY / Fold change vs veh, CCNY / RFU, UFL1 / Fold change vs veh, UFL1 / RFU, COG3 / Fold change vs veh, COG3 / RFU, DIAPH2 / Fold change vs veh, DIAPH2 / RFU, SKA2 / Fold change vs veh, SKA2 / RFU, AFF3 / Fold change vs veh, AFF3 / RFU, LMF1 / Fold change vs veh, LMF1 / RFU, IPO11 / Fold change vs veh, IPO11 / RFU, DFFB / Fold change vs veh, DFFB / RFU, FOXP1 / Fold change vs veh, FOXP1 / RFU, CARD8 / Fold change vs veh, CARD8 / RFU, STRN3 / Fold change vs veh, STRN3 / RFU, ADK / Fold change vs veh, ADK / RFU, RASSF2 / Fold change vs veh, RASSF2 / RFU, WIPF1 / Fold change vs veh, WIPF1 / RFU, LARP1B / Fold change vs veh, LARP1B / RFU, RASA1 / Fold change vs veh, RASA1 / RFU, RB1 / Fold change vs veh, RB1 / RFU, PPFIA1 / Fold change vs veh, PPFIA1 / RFU, MAT2A / Fold change vs veh, MAT2A / RFU, CCT5 / Fold change vs veh, CCT5 / RFU, WDR92 / Fold change vs veh, WDR92 / RFU, CUX1 / Fold change vs veh, CUX1 / RFU, TTC7A / Fold change vs veh, TTC7A / RFU, TMEM135 / Fold change vs veh, TMEM135 / RFU, DEPTOR / Fold change vs veh, DEPTOR / RFU, CPM / Fold change vs veh, CPM / RFU, DNAJB6 / Fold change vs veh, DNAJB6 / RFU, CACNA2D3 / Fold change vs veh, CACNA2D3 / RFU, DTX4 / Fold change vs veh, DTX4 / RFU, TFCP2 / Fold change vs veh, TFCP2 / RFU, GMCL1 /// GMCL1P1 / Fold change vs veh, GMCL1 /// GMCL1P1 / RFU, AEBP2 / Fold change vs veh, AEBP2 / RFU, SNHG1 /// SNORD22 /// SNORD25 /// SNORD26 /// SNORD27 /// SNORD28 /// SNORD29 /// SNORD31 / Fold change vs veh, SNHG1 /// SNORD22 /// SNORD25 /// SNORD26 /// SNORD27 /// SNORD28 /// SNORD29 /// SNORD31 / Fold change (Aza/veh), C12orf56 (ProbeSet 11735607_a_at) / Fold change (ACY-1035/veh), C12orf56 (ProbeSet 11735607_a_at) / Fold change (Aza/veh), FGFR1OP (ProbeSet 11751329_s_at) / Fold change (ACY-1035/veh), FGFR1OP (ProbeSet 11751329_s_at) / Fold change (Aza/veh), VPS36 (ProbeSet 11739960_a_at) / Fold change (ACY-1035/veh), VPS36 (ProbeSet 11739960_a_at) / RFU SYPL1 (11715823_x_at) / Fold change /veh SYPL1 (11715823_x_at) / RFU IGFBP7 (11715501_s_at) / Fold change /veh IGFBP7 (11715501_s_at) / RFU REEP3 (11722064_at) / Fold change /veh REEP3 (11722064_at) / RFU IGLL1 (11728026_x_at) / Fold change /veh IGLL1 (11728026_x_at): dose or concentration left out as unconfirmed
Settings: ProbeSet 11750457_a_at; LIST B

Nc1ncn([C@@H]2O[C@H](CO)[C@@H](O)[C@H]2O)c(=O)n1 [azacitidine]
Fold change vs veh, GTPBP10: 0.84
